Here are results for 21 compounds from patent US20130261077A1 (priority 2012, published 2013).

For the experiment, the target named is T1, FimH-CRD (Escherichia coli, UniProt P08191).
T1 construct: The first 177 amino acids of the FimH protein; thrombin tag (printed as 'fusion protein with thrombin') (cleaved yes); made in house; host or cells: bacteria (pET21b plasmid)
T1 sequence (P08191 22-177): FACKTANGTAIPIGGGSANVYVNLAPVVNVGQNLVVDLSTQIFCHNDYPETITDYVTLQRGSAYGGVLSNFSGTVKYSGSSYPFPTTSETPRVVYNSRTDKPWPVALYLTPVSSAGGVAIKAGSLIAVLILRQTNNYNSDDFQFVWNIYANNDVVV
In words: Competitive binding assay by fluorescence polarization, assay 1 (compounds prepared by manual serial dilution). The procedure: The first 177 amino acids of the FimH protein were expressed as a fusion protein with thrombin in a pET21b plasmid in bacteria. This FimH protein sequence contains the carbohydrate recognition domain (CRD) and shall be termed FimH-CRD. Following bacterial expression of the protein, the FimH-CRD protein was purified to homogeneity and the thrombin tag removed by protease cleavage. A competitive binding assay by fluorescence polarization was performed using 5 nM of the Alexa 647 mannoside probe and 60 nM of the FimH-CRD. The samples are assayed in a low volume 384 well microtiter plate in a final volume of 20 μl. The final assay buffer conditions are the following, 50 mM Tris-Cl, ph 7.0, 100 mM NaCl, 1 mM EDTA, 5 mM β-mercaptoethanol, 0.05% BSA and 2.5% DMSO. Two assays are performed for FimH, termed assay 1 or assay 2. The assay conditions are the same for both assays except the following: assay 1 has compounds prepared by manual dilution in a serial dilution factor with 12-point dose response while assay 2 has compounds prepared by a robotics system also through a serial dilution factor (12 point dose response) and initially prepared in duplicate in 384 well-Corning polypropylene round bottom plates. The assay 2 plates have compound which is then frozen and must be thawed prior to use. Initially the Alexa 647 probe and the FimH-CRD are added to the assay buffer and then 0.5 μl of test compound (assay 1 or 2) between 0.4 nM to 75 μM final concentration are added (12 point titration with 3-fold serial dilution). Control wells for the Alexa 647 probe are prepared with the same conditions except for the addition of the FimH-CRD protein. Plates are then incubated for 5 hrs at room temperature in the dark and under humid conditions to prevent drying. Plates are read using the SpectraMax Paradigm multi-mode plate reader and the appropriate fluorescent polarization detection cartridge (Alexa-647).
Alexa 647 mannoside probe is prepared using the similar procedure reported for FAM mannoside (Han, Z. et. al., 2010, J. Med. Chem., 53, 4779) and is described in the scheme below.
To a blue colored stirred solution of (2S,3S,4S,5S,6R)-2-(4-aminobutoxy)-6-(hydroxymethyl)tetrahydropyran-3,4,5-triol (2.21 mg, 0.009 mmol) and the (2E)-2-[(2E,4E)-5-[3,3-dimethyl-5-sulfonato-1-(3-sulfonatopropyl)indol-1-ium-2-yl]penta-2,4-dienylidene]-3-[6-(2,5-dioxopyrrolidin-1-yl)oxy-6-oxo-hexyl]-3-methyl-1-(3-sulfonatopropyl)indoline-5-sulfonate (Potassium Ion (3)) (4.9 mg, 0.0044 mmol) in DMF (44 μL) is added Et3N (5.4 mg, 7.0 μL, 0.053 mmol) at RT. The solution is stirred at room temperature over night, concentrated, dissolved in water and purified on 12 g C-18 silica gel cartridge on Isolera system using acetonitrile in water (0 to 40%, 10 CV) and followed by lyophilization to afford Alexa 647 mannoside probe (3.3 mg, 34%) as deep blue solid.
The Kd values of the compounds are determined from dose response curves using twelve concentrations per compound in duplicate. Curves are fitted to data points using Fluorescence Polarization competitive displacement analysis, and Kds are interpolated from the resulting curves using GraphPad Prism software, version […] (GraphPad software Inc., San Diego, Calif., USA).
Usually IC50 stands for the midpoint of a concentration-inhibition curve. What is called Kd is the free concentration of one partner at which half of the binding sites on the other are occupied at equilibrium, for simple one-to-one binding. `COc1ccc(C2O[C@H](CO)[C@@H](O)[C@H](O[C@H]3O[C@H](CO)[C@@H](O)[C@H](O)[C@@H]3O)[C@@H]2O)cc1Oc1ccc(NC(=O)C(C)C)cc1` (some centres unmarked) [Compound 290] returned a concentration for half-maximal inhibition (IC50) of 29 nM and a Kd of 11.9 ± 4.9 nM.

For `OC[C@H]1O[C@H](c2cccc(-c3ccc4[nH]ccc4c3)c2)[C@@H](O)[C@@H](O)[C@@H]1O` [Compound 15], the 50% inhibitory concentration (IC50) is 306 nM and binding was characterised by a dissociation constant (Kd) of 48.2 ± 47.7 nM.

Compound `COC(=O)Cc1ccccc1-c1cccc([C@H]2O[C@H](CO)[C@@H](O)[C@H](O)[C@@H]2O)c1` [Compound 66, Methyl 2-(3′-((2R,3S,4R,5S,6R)-3,4,5-trihydroxy-6-(hydroxymethyl)tetrahydro-2H-pyran-2-yl)-[1,1′-biphenyl]-2-yl)acetate] gave a 50% inhibitory concentration (IC50) of 24 nM and a Kd of 14.3 ± 6.6 nM.

`Cc1nnc(NC(=O)c2cccc([C@H]3O[C@H](CO)[C@@H](O)[C@H](O)[C@@H]3O)c2)s1` [Compound 25, N-(5-methyl-1,3,4-thiadiazol-2-yl)-3-((2R,3S,4R,5S,6R)-3,4,5-trihydroxy-6-(hydroxymethyl)tetrahydro-2H-pyran-2-yl)benzamide] registered a concentration for half-maximal inhibition (IC50) of 36 nM and a Kd of 7 ± 0.5 nM.

`OC[C@H]1O[C@H](c2ccc(O)cc2)[C@@H](O)[C@@H](O)[C@@H]1O` [Compound 46, (2R,3S,4R,5S,6R)-2-(hydroxymethyl)-6-(4-hydroxyphenyl)tetrahydropyran-3,4,5-triol] returned an IC50 of 148 nM and a Kd of 28.2 ± 13.3 nM.

`CNC(=O)c1ccc2nc(Oc3cccc([C@H]4O[C@H](CO)[C@@H](O)[C@H](O)[C@@H]4O)c3)sc2c1` [Compound 255, N-methyl-2-[3-[(2R,3S,4R,5S,6R)-3,4,5-trihydroxy-6-(hydroxymethyl)tetrahydropyran-2-yl]phenoxy]-1,3-benzothiazole-6-carboxamide] came in with a Kd of 8.7 ± 2 nM.

For `CNC(=O)c1cc(C(=O)NC)cc(-c2cccc([C@H]3O[C@H](CO)[C@@H](O)[C@H](O)[C@@H]3O)c2)c1` [Compound 63, N^3,N^5-dimethyl-3′-((2R,3S,4R,5S,6R)-3,4,5-trihydroxy-6-(hydroxymethyl)tetrahydro-2H-pyran-2-yl)-[1,1′-biphenyl]-3,5-dicarboxamide], the IC50 came to 19 nM and the Kd came out at 25.4 ± 14.4 nM.

Compound `Cc1cc(C)cc(Oc2cccc([C@H]3O[C@H](CO)[C@@H](O)[C@H](O)[C@@H]3O)c2)c1` [Compound 58, (2R,3S,4R,5S,6R)-2-[3-(3,5-dimethylphenoxy)phenyl]-6-(hydroxymethyl)tetrahydropyran-3,4,5-triol] gave an IC50 of 66 nM and a Kd of 11.1 ± 1.6 nM.

With `OC[C@H]1O[C@H](O[C@@H]2[C@H](O)[C@@H](c3cccc(OCCF)c3)O[C@H](CO)[C@H]2O)[C@@H](O)[C@@H](O)[C@@H]1O` [Compound 287, (2R,3S,4S,5S,6R)-2-[(2R,3R,4R,5R,6R)-2-[3-(2-Fluoroethoxy)phenyl]-3,5-dihydroxy-6-(hydroxymethyl)tetrahydropyran-4-yl]oxy-6-(hydroxymethyl)tetrahydropyran-3,4,5-triol], the 50% inhibitory concentration (IC50) was determined as 107 nM and binding was characterised by a dissociation constant (Kd) of 32.2 ± 8.5 nM.

`OC[C@H]1O[C@H](c2cccc(F)c2)[C@@H](O)[C@@H](O)[C@@H]1O` [Compound 47, (2R,3S,4R,5S,6R)-2-(3-fluorophenyl)-6-(hydroxymethyl)tetrahydropyran-3,4,5-triol]: the half-inhibitory concentration (IC50) came to 163 nM and binding was put at a Kd of 40.6 ± 10.4 nM.

Take `COC(=O)Cc1ccc(Oc2ccc([C@H]3O[C@H](CO)[C@@H](O)[C@H](O)[C@@H]3O)cc2)cc1` [Compound 55, methyl 2-(4-(4-((2R,3S,4R,5S,6R)-3,4,5-trihydroxy-6-(hydroxymethyl)tetrahydro-2H-pyran-2-yl)phenoxy)phenyl)acetate]: the concentration for half-maximal inhibition (IC50) was determined as 35 nM and the Kd was found to be 6.3 ± 0.4 nM.

On to `OC[C@H]1O[C@H](c2cccc(-c3ccccc3)c2)[C@@H](O)[C@@H](O)[C@@H]1O` [Compound 43, (2R,3S,4R,5S,6R)-2-(hydroxymethyl)-6-(3-phenylphenyl)tetrahydropyran-3,4,5-triol], for which the IC50 is 64 nM and the dissociation constant Kd came out at 12.4 ± 1.3 nM.

In turn, `COC(=O)c1ccc(CCC[C@H]2O[C@H](CO)[C@@H](O)[C@H](O[C@H]3O[C@H](CO)[C@@H](O)[C@H](O)[C@@H]3O)[C@@H]2O)cc1` [Compound 283, Methyl 4-[3-[(2R,3R,4R,5R,6R)-3,5-dihydroxy-6-(hydroxymethyl)-4-[(2R,3S,4S,5S,6R)-3,4,5-trihydroxy-6-(hydroxymethyl)tetrahydropyran-2-yl]oxy-tetrahydropyran-2-yl]propyl]benzoate] displayed an IC50 of 27 nM and an equilibrium dissociation constant (Kd) of 10.8 ± 4.1 nM.

Regarding `CNC(=O)c1ccc(-c2cccc([C@H]3O[C@H](CO)[C@@H](O)[C@H](O)[C@@H]3O)c2)cc1` [Compound 2, N-methyl-4-[3-[(2R,3S,4R,5S,6R)-3,4,5-trihydroxy-6-(hydroxymethyl)tetrahydropyran-2-yl]phenyl]benzamide], the half-maximal inhibitory concentration (IC50) worked out at 29 nM and the Kd is less than 5 nM.

`COC(=O)Cc1cccc(Oc2ccc([C@H]3O[C@H](CO)[C@@H](O)[C@H](O)[C@@H]3O)cc2)c1` [Compound 293, methyl 2-(3-(4-((2R,3S,4R,5S,6R)-3,4,5-trihydroxy-6-(hydroxymethyl)tetrahydro-2H-pyran-2-yl)phenoxy)phenyl)acetate] yielded a dissociation constant Kd of 9 ± 2 nM.

For the compound `COc1ccc([C@H]2O[C@H](CO)[C@@H](O)[C@H](O)[C@@H]2O)cc1O` [Compound 61, (2R,3S,4R,5S,6R)-2-(3-hydroxy-4-methoxy-phenyl)-6-(hydroxymethyl)tetrahydropyran-3,4,5-triol], the IC50 was 42 nM and the Kd came out at 17.2 ± 10.7 nM.

For the compound `CNC(=O)c1cccc(Oc2ccc([C@H]3O[C@H](CO)[C@@H](O)[C@H](O)[C@@H]3O)cc2)c1` [Compound 292, N-methyl-3-(4-((2R,3S,4R,5S,6R)-3,4,5-trihydroxy-6-(hydroxymethyl)tetrahydro-2H-pyran-2-yl)phenoxy)benzamide], the affinity, expressed as Kd, was 6 ± 0.4 nM.

With `OC[C@H]1O[C@H](O[C@@H]2[C@H](O)[C@@H](c3cccc(Oc4ccc(F)cc4)c3)O[C@H](CO)[C@H]2O)[C@@H](O)[C@@H](O)[C@@H]1O` [Compound 270, (2R,3S,4S,5S,6R)-2-[(2R,3R,4R,5R,6R)-2-[3-(4-Fluorophenoxy)phenyl]-3,5-dihydroxy-6-(hydroxymethyl)tetrahydropyran-4-yl]oxy-6-(hydroxymethyl)tetrahydropyran-3,4,5-triol], the half-maximal inhibitory concentration (IC50) was 54 nM and the dissociation constant (Kd) turned out to be 14.4 ± 2.6 nM.

`O=C(Nc1ccc(F)cc1)Oc1cccc([C@H]2O[C@H](CO)[C@@H](O)[C@H](O)[C@@H]2O)c1` [Compound 70, 3-((2R,3S,4R,5S,6R)-3,4,5-trihydroxy-6-(hydroxymethyl)tetrahydro-2H-pyran-2-yl)phenyl (4-fluorophenyl)carbamate] yielded a half-maximal inhibitory concentration (IC50) of 46 nM and a Kd of 11.6 ± 4.2 nM.

`Cc1nnc(-c2ccc(C#Cc3ccc([C@H]4O[C@H](CO)[C@@H](O)[C@H](O)[C@@H]4O)cc3)cc2)o1` [Compound 134, (2R,3S,4R,5S,6R)-2-(hydroxymethyl)-6-[4-[2-[4-(5-methyl-1,3,4-oxadiazol-2-yl)phenyl]ethynyl]phenyl]tetrahydropyran-3,4,5-triol]: the Kd was determined as 54.2 ± 17 nM.

For `CN(C)c1ccc(NC(=O)Oc2cccc([C@H]3O[C@H](CO)[C@@H](O)[C@H](O)[C@@H]3O)c2)cc1` [Compound 71, 3-((2R,3S,4R,5S,6R)-3,4,5-trihydroxy-6-(hydroxymethyl)tetrahydro-2H-pyran-2-yl)phenyl (4-(dimethylamino)phenyl)carbamate], the 50% inhibitory concentration (IC50) was 67 nM and the dissociation constant Kd was found to be 14.6 ± 2.3 nM.
